# According to patent publication US20080009418A1, “Selective Inhibitors” (Alchemia LTD., priority 2004, published 2008):
# Key:
# [1] = biological target: T1, Human Melanocortin (MC3) (Homo sapiens, UniProt P41968); test: Radioligand binding, human melanocortin MC3 membranes, FlashPlate, [125I]-NDP-αMSH; settings: compound at 10 μM; [125I]-NDP-αMSH
# T1 construct: purchased Perkin Elmer Biosignal
# Description: (§1) Cloned receptor membrane preparations from Perkin Elmer Biosignal™ were used in radioligand binding assays.
# (§2) A1 Human δ-opioid (DOP), A2 Human κ-Opioid (KOP), A3 Human Melanocortin (MC3), A4 Human Melanocortin (MC4), A5 Human melanocortin (MC5), A6 Human melanin-concentrating hormone (MCH1), A7 Human μ-opioid (MOP), A8 Human neurokinin (NK1), A9 Human neuropeptide Y (NPY-Y1), A10 Human opioid (ORL1) A11 Mouse urotensin (mUR2)
# (§3) Screening experiments were performed in either a 50 μl filtration or 25 μl FlashPlate assay format using the following protocol:
# (§4) 19.5 μl buffer, 0.5 μl of compound diluted in DMSO, 5 μl of radioligand diluted in binding buffer.
# (§5) The day prior to performing the experiment 50 μl DMSO was added to each well of the compound plates to yield compounds at a final concentration of 10 mM. Daughter plates were then created by diluting the compounds further in DMSO to a concentration of 0.5 mM. The mother plates were frozen immediately.
# (§6) Immobilize membranes into FlashPlate microplates using PerkinElmer BioSignal's proprietary coating procedure. Dilute radioligand to 5× the final concentration in binding buffer. Add 19.5 μl buffer to each well of the FlashPlate. Add 0.5 μl of DMSO (total value, 5 wells), reference ligand (non-specific value, 3 wells) or compound to the corresponding wells in the FlashPlate microplate. Initiate the reaction by adding 5 μl of radioligand to each well. Apply TopSeal-A onto FlashPlate microplates. Incubate at room temperature for 1 hour in the dark. Count for 30 seconds per well on TopCount Microplate Scintillation and Luminescence Counter (PerkinElmer) using a count delay of 60 seconds.
# (§7) Percentage inhibition was calculated using the following formula: [formula]
# [2] = biological target: T2, Human δ-opioid (DOP) (Homo sapiens, UniProt P41143); test: Radioligand binding, human δ-opioid (DOP) membranes, FlashPlate, [3H]-Bremazocine; settings: compound at 10 μM; [3H]-Bremazocine
# T2 construct: purchased Perkin Elmer Biosignal
# T2 sequence (P41143 whole entry): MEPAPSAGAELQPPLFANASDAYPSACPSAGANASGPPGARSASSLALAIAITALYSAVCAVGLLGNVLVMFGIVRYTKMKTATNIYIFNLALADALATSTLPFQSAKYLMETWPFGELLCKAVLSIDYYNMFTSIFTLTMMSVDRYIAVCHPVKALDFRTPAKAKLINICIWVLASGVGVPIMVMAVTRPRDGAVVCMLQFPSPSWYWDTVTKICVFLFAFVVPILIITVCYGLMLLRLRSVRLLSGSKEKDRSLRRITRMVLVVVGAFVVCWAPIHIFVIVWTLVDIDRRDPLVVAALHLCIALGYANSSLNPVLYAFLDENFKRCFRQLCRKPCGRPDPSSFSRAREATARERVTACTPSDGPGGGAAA
# Description: as §1, §2, §3, §4, §5, §6, §7
# [3] = biological target: T3, Human Melanocortin (MC4) (Homo sapiens, UniProt P32245); test: Radioligand binding, human melanocortin MC4 membranes, FlashPlate, [125I]-NDP-αMSH; settings: compound at 10 μM; [125I]-NDP-αMSH
# T3 construct: purchased Perkin Elmer Biosignal
# T3 sequence (P32245 whole entry): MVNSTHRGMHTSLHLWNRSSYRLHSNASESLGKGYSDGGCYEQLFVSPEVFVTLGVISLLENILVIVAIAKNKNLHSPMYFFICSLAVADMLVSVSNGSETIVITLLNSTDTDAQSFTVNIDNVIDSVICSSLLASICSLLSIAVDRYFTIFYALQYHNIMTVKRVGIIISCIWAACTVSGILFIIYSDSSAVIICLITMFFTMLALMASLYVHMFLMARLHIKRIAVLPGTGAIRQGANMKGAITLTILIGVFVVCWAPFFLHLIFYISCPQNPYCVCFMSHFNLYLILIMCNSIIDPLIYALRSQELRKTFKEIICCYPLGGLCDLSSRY
# Description: as §1, §2, §3, §4, §5, §6, §7
# [4] = biological target: T4, Mouse urotensin (mUR2) (Mus musculus, UniProt Q8VIH9); test: Radioligand binding, mouse urotensin mUR2 membranes, FlashPlate, [125I]-Urotensin II; settings: compound at 10 μM; [125I]-Urotensin II
# T4 construct: purchased Perkin Elmer Biosignal
# T4 sequence (Q8VIH9 1-385): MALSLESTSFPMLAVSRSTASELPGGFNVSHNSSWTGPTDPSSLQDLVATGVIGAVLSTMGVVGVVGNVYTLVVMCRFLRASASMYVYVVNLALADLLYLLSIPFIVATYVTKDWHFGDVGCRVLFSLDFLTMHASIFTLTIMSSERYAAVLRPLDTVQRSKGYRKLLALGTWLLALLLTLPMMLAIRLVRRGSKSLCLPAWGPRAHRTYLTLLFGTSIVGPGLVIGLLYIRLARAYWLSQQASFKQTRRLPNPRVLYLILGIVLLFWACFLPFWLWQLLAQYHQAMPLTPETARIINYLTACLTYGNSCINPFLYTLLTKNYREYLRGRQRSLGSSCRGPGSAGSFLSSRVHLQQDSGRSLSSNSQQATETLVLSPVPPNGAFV
# Description: as §1, §2, §3, §4, §5, §6, §7
# [5] = biological target: T5, Human neurokinin (NK1) (Homo sapiens, UniProt P25103); test: Radioligand binding, human neurokinin NK1 membranes, filtration, [125I]-Substance P; settings: compound at 10 μM; [125I]-Substance P
# T5 construct: purchased Perkin Elmer Biosignal
# T5 sequence (P25103 whole entry): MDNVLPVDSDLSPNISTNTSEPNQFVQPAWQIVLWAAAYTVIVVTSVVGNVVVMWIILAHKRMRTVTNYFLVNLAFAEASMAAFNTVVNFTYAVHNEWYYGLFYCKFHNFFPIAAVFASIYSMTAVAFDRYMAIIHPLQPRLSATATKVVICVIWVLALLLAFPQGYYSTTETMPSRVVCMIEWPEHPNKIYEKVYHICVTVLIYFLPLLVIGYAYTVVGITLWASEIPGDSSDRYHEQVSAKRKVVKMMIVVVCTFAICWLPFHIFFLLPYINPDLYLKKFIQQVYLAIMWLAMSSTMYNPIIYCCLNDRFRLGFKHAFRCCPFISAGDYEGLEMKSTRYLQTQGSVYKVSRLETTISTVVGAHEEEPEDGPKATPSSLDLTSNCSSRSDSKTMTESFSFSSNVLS
# Description: as §1, §2, §3
# (§8) 44 μl membranes diluted in buffer, 1 μl of compound diluted in DMSO, 5 μl of radioligand diluted in binding buffer.
# as §5
# (§9) Thaw membranes on ice then dilute membranes in binding buffer at a concentration of 1 Unit per well. Dilute radio-ligand to 10 times the final concentration in binding buffer. Add 44 μl of diluted membranes to each well of the deep-well plate. Add 1 μl of DMSO (total value, 5 wells), reference ligand (non-specific value, 3 wells) or compound to the corresponding wells in the deep-well plate. Initiate the reaction by adding 5 μl of radioligand to each well and vortex gently. Incubate at room temperature for 1 hour. During incubation, pre-incubate the Multiscreen Harvest plates in 0.3% PEI. Filter over pre-soaked Multiscreen Harvest plates using a Tomtec Harvester. Wash 9 times with 500 μl of cold 50 mM Tris-HCl pH 7.4 at 4° C. and air-dry for 30 minutes at room temperature under a fume hood. Apply a bottom seal to the Multiscreen Harvest plates. Add 25 μl of MicroScint-0 to each well. Apply TopSeal-A to the plate. Count for 30 seconds per well on TopCount Microplate Scintillation and Luminescence Counter (PerkinElmer) using a count delay of 60 seconds.
# as §7
# [6] = biological target: T6, Human μ-opioid (MOP) (Homo sapiens, UniProt P35372); test: Radioligand binding, human μ-opioid (MOP) membranes, FlashPlate, [3H]-Naloxone; settings: compound at 10 μM; [3H]-Naloxone
# T6 construct: purchased Perkin Elmer Biosignal
# T6 sequence (P35372 whole entry): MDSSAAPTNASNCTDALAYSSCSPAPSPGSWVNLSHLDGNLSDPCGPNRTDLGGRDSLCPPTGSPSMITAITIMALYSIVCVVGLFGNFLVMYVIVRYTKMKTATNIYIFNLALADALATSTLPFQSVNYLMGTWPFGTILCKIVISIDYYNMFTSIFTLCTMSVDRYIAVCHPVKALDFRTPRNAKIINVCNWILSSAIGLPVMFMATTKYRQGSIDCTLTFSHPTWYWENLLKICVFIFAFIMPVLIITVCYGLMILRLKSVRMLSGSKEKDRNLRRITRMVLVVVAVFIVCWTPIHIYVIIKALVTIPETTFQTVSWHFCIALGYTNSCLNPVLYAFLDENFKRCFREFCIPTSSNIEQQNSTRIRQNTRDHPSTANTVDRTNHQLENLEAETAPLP
# Description: as §1, §2, §3, §4, §5, §6, §7
# [7] = biological target: T7, Human neuropeptide Y (NPY-Y1) (Homo sapiens, UniProt P25929); test: Radioligand binding, human neuropeptide Y NPY-Y1 membranes, FlashPlate, [125I]-PYY; settings: compound at 10 μM; [125I]-PYY
# T7 construct: purchased Perkin Elmer Biosignal
# T7 sequence (P25929 1-384): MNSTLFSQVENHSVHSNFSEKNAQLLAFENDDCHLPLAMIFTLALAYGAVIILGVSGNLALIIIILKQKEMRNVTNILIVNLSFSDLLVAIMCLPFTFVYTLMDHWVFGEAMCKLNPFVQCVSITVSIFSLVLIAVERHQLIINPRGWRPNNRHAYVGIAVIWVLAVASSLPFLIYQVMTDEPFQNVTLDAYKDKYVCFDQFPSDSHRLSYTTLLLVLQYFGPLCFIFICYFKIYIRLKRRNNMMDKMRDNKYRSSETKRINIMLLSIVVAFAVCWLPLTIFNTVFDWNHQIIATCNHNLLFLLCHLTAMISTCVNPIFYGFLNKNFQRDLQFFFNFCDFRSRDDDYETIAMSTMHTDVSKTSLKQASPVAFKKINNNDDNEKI
# Description: as §1, §2, §3, §4, §5, §6, §7
# [8] = biological target: T8, Human κ-Opioid (KOP) (Homo sapiens, UniProt P41145); test: Radioligand binding, human κ-opioid (KOP) membranes, filtration, [3H]-Diprenorphine; settings: compound at 10 μM; [3H]-Diprenorphine
# T8 construct: purchased Perkin Elmer Biosignal
# T8 sequence (P41145 whole entry): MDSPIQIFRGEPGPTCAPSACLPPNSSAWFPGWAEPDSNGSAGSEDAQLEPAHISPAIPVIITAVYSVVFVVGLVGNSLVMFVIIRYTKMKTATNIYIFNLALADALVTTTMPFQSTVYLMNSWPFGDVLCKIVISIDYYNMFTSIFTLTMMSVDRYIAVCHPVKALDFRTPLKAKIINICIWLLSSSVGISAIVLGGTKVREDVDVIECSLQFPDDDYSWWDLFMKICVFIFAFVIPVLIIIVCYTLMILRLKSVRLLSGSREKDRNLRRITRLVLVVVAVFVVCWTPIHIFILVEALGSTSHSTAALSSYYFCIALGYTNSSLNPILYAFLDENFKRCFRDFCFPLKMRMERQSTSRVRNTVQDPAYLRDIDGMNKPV
# Description: as §1, §2, §3, §8, §5, §9, §7
# [9] = biological target: T9, Human melanocortin (MC5) (Homo sapiens, UniProt P33032); test: Radioligand binding, human melanocortin MC5 membranes, FlashPlate, [125I]-NDP-αMSH; settings: compound at 10 μM; [125I]-NDP-αMSH
# T9 construct: purchased Perkin Elmer Biosignal
# T9 sequence (P33032 whole entry): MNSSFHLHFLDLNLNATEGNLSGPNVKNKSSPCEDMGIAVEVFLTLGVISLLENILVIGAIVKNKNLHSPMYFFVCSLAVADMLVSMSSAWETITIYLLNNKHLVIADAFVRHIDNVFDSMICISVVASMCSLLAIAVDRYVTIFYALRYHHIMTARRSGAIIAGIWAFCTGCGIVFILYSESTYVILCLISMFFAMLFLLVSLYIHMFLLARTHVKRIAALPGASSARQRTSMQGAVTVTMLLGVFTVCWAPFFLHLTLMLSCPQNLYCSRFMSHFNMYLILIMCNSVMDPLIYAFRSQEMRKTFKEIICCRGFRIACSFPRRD
# Description: as §1, §2, §3, §4, §5, §6, §7
# [10] = biological target: T10, Human opioid (ORL1) (Homo sapiens, UniProt P41146); test: Radioligand binding, human opioid ORL1 membranes, FlashPlate, [125I]-Nociceptin; settings: compound at 10 μM; [125I]-Nociceptin
# T10 construct: purchased Perkin Elmer Biosignal
# T10 sequence (P41146 whole entry): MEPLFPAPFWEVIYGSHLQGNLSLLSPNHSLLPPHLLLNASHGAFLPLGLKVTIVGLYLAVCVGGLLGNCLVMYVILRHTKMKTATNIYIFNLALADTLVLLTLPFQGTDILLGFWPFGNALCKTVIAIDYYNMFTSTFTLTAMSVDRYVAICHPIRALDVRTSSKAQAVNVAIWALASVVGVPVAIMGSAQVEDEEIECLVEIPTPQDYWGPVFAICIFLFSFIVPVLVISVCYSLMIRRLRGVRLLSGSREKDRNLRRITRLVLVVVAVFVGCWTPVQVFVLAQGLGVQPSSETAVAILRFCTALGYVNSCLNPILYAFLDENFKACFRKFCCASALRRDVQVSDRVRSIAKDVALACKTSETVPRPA
# Description: as §1, §2, §3, §4, §5, §6, §7
# [11] = biological target: T11, Human melanin-concentrating hormone (MCH1) (Homo sapiens, UniProt Q99705); test: Radioligand binding, human melanin-concentrating hormone MCH1 membranes, FlashPlate, [125I]-S36057; settings: compound at 10 μM; [125I]-S36057
# T11 construct: purchased Perkin Elmer Biosignal
# T11 sequence (Q99705 whole entry): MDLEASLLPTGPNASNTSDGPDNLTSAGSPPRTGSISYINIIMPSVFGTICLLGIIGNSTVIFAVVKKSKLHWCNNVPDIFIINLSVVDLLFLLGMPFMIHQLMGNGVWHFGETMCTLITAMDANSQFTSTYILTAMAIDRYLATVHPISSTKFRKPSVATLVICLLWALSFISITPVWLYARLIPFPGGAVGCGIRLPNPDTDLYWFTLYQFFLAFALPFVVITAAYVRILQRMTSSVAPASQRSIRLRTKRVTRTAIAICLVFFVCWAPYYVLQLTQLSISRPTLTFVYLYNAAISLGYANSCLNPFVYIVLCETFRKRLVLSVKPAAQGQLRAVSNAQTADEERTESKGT
# Description: as §1, §2, §3, §4, §5, §6, §7
# T1 sequence (P41968 whole entry): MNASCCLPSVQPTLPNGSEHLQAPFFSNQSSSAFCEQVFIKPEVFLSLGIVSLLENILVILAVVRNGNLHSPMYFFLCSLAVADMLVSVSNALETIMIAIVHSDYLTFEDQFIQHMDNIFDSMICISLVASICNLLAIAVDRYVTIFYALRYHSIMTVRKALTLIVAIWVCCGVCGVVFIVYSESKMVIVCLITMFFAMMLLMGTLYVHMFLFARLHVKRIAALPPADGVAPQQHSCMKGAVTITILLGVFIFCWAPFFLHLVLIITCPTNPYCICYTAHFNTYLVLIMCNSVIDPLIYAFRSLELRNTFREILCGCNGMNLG
SMILES,"A3 radioligand binding, percentage inhibition [1]","A1 radioligand binding, percentage inhibition [2]","A4 radioligand binding, percentage inhibition [3]","A11 radioligand binding, percentage inhibition [4]","A8 radioligand binding, percentage inhibition [5]","A7 radioligand binding, percentage inhibition [6]","A9 radioligand binding, percentage inhibition [7]","A2 radioligand binding, percentage inhibition [8]","A5 radioligand binding, percentage inhibition [9]","A10 radioligand binding, percentage inhibition [10]","A6 radioligand binding, percentage inhibition [11]",also measured
CO[C@H]1[C@H](O)[C@@H](COCc2cccc(O)c2)OC(OCCc2ccccc2)[C@@H]1NC(=O)CNC(=N)N (stereo partly drawn) [compound 158],− (“−” indicates less than 50% inhibition at 10 μM),− (“−” indicates less than 50% inhibition at 10 μM),− (“−” indicates less than 50% inhibition at 10 μM),− (“−” indicates less than 50% inhibition at 10 μM),+ (“+” indicates greater than 50% inhibition at 10 μM),− (“−” indicates less than 50% inhibition at 10 μM),− (“−” indicates less than 50% inhibition at 10 μM),− (“−” indicates less than 50% inhibition at 10 μM),− (“−” indicates less than 50% inhibition at 10 μM),− (“−” indicates less than 50% inhibition at 10 μM),− (“−” indicates less than 50% inhibition at 10 μM),
CO[C@H]1[C@H](O)[C@@H](COCc2ccccc2)OC(OCc2ccc(Cl)cc2)[C@@H]1NC(=O)CNC(=N)N (stereo partly drawn) [compound 101],− (“−” indicates less than 50% inhibition at 10 μM),− (“−” indicates less than 50% inhibition at 10 μM),− (“−” indicates less than 50% inhibition at 10 μM),− (“−” indicates less than 50% inhibition at 10 μM),− (“−” indicates less than 50% inhibition at 10 μM),− (“−” indicates less than 50% inhibition at 10 μM),− (“−” indicates less than 50% inhibition at 10 μM),− (“−” indicates less than 50% inhibition at 10 μM),+ (“+” indicates greater than 50% inhibition at 10 μM),− (“−” indicates less than 50% inhibition at 10 μM),− (“−” indicates less than 50% inhibition at 10 μM),
NCCCC(=O)NC1C(OCc2ccccc2)OC(COCc2ccc3ccccc3c2)C(O)C1OCc1ccc2ccccc2c1 (stereo not drawn) [compound 375],,,,,,,,,,,,"A3: inhibition of radioligand binding, human melanocortin (MC3) [1]: − (“−” indicates less than 50% inhibition at 10 μM); A1: inhibition of radioligand binding, human δ-opioid (DOP) [2]: − (“−” indicates less than 50% inhibition at 10 μM); A4: inhibition of radioligand binding, human melanocortin (MC4) [3]: + (“+” indicates greater than 50% inhibition at 10 μM); A11: inhibition of radioligand binding, mouse urotensin (mUR2) [4]: − (“−” indicates less than 50% inhibition at 10 μM); A8: inhibition of radioligand binding, human neurokinin (NK1) [5]: + (“+” indicates greater than 50% inhibition at 10 μM); A7: inhibition of radioligand binding, human μ-opioid (MOP) [6]: − (“−” indicates less than 50% inhibition at 10 μM); A9: inhibition of radioligand binding, human neuropeptide Y (NPY-Y1) [7]: − (“−” indicates less than 50% inhibition at 10 μM); A2: inhibition of radioligand binding, human κ-opioid (KOP) [8]: − (“−” indicates less than 50% inhibition at 10 μM); A5: inhibition of radioligand binding, human melanocortin (MC5) [9]: + (“+” indicates greater than 50% inhibition at 10 μM); A10: inhibition of radioligand binding, human opioid (ORL1) [10]: − (“−” indicates less than 50% inhibition at 10 μM); A6: inhibition of radioligand binding, human melanin-concentrating hormone (MCH1) [11]: − (“−” indicates less than 50% inhibition at 10 μM)"
